Laboratory results: PMC5628579, “Potent mechanism-based sirtuin-2-selective inhibition by an in situ-generated occupant of the substrate-binding site, “selectivity pocket” and NAD^+-binding site” (Chemical Science, 2017)

Biological target: T1, SIRT3 (Homo sapiens, UniProt Q9NTG7)
T1 sequence (Q9NTG7 1-399): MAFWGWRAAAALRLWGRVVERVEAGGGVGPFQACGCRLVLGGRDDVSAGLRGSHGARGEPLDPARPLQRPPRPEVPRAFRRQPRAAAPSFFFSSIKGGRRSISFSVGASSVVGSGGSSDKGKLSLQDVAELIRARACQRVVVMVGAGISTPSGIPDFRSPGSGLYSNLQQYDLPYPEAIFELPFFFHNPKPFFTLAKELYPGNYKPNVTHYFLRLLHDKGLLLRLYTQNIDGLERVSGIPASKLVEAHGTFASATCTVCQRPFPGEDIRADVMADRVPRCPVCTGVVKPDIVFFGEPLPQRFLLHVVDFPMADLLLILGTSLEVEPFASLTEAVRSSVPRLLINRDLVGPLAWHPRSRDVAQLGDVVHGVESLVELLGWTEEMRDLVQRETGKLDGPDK
Experiment: Fluor de Lys SIRT3 assay

C[C@H](NC(=O)[C@H](CCCCNC(=S)CNC(=O)c1ccccc1Nc1cccc(OCCc2ccccc2)c1)NC(=O)OCc1ccccc1)C(N)=O [Compound 36]
IC50: 9.49 ± 1.7 µM | inhibition at 1 µM (read-out: % inhibition at 1 μM SIRT3): 2 ± 1.8%
